Assay results: a melting point compilation (Tetko et al.; mined from patent text by program, amines drawn as free bases though some values may be those of a salt)

**Q.** With `CCOC(=O)c1ccccc1N(CC(=O)N(C)c1ccccc1)C(=O)CNC(=O)Nc1cccc(CO)c1` as the compound, how does the melting point read?
**A.** The melting point was 184 °C.

**Q.** With `O=C(NC(c1ccc([N+](=O)[O-])cc1)P(=O)(Oc1ccccc1)Oc1ccccc1)N(c1ccccc1)c1ccccc1` (configuration not stated) as the compound, how does the melting point read?
**A.** The melting point was 157 to 162 °C.

**Q.** For `COC(=O)CC(Sc1cc(C(C)(C)C)c(O)c(C(C)(C)C)c1)C(=O)OC` (configuration not stated), which melting point is on record?
**A.** The melting point was 94 to 96 °C.

**Q.** Which melting point does the source give for `O=C1CCCC(=O)C1C(=O)c1ccc(Cl)c(OCCn2cnnn2)c1Cl` here?
**A.** The melting point was 46 to 54 °C.

**Q.** Which melting point does the source give for `Nc1nccc2oc(I)cc12` here?
**A.** The melting point was 170 to 173 °C.

**Q.** With `CC1CC(=O)NN=C1c1ccc(NCCNC(N)=S)c([N+](=O)[O-])c1` (configuration not stated) as the compound, how does the melting point read?
**A.** Its melting point is 231 to 233 °C.

**Q.** With `CN(C)C1CC=C(c2c[nH]c3ccc(NC(=N)c4cccs4)cc23)CC1` (configuration not stated) as the compound, how does the melting point read?
**A.** The melting point was 113 to 115 °C.

**Q.** For `COc1cc(OC)c2c(=O)[nH]c(-c3cc(C)c(OCCCCN4CCCC4)c(C)c3)nc2c1`, which melting point is on record?
**A.** The melting point was 180 to 181 °C.

**Q.** For `COc1ccc(C(CC(C)=O)N2C(=O)c3cccc(N(S(C)(=O)=O)S(C)(=O)=O)c3C2=O)cc1OC` (configuration not stated), which melting point is on record?
**A.** Its melting point is 194 to 196 °C.

**Q.** For `CN1CCc2ccn(S(=O)(=O)c3ccccc3)c2C(c2ccccc2)C1` (configuration not stated), which melting point is on record?
**A.** Its melting point is 115 to 116 °C.

**Q.** With `CCCC1=NN(c2ccncc2)C(=O)C1=CNc1ccccc1CC` as the compound, how does the melting point read?
**A.** Its melting point is 159 °C.

**Q.** For `Cn1ccnc1Sc1ccc(Nc2c(C#N)cnc3cc(N4CCC(N5CCCC5)CC4)c([N+](=O)[O-])cc23)cc1Cl`, which melting point is on record?
**A.** The melting point was 220 to 230 °C.

**Q.** Which melting point does the source give for `Cc1cc(NCc2ccc(-c3ccccc3C#N)cc2)n2nccc2n1` here?
**A.** The melting point was 221 to 223 °C.

**Q.** For `CCOC(=O)c1cc(CBr)ccc1S(=O)(=O)NC(=O)Nc1nc(OC)cc(OC)n1`, which melting point is on record?
**A.** The melting point was 195 to 197 °C.

**Q.** For `O=C1OCCC12Sc1ccc([N+](=O)[O-])cc1C2=O` (configuration not stated), which melting point is on record?
**A.** Its melting point is 190 to 194 °C.

**Q.** With `CC(C)c1nn(-c2ccc(C(F)(F)F)cn2)cc1CCCCOc1ccc(CC(=O)O)cc1` as the compound, how does the melting point read?
**A.** The melting point was 130 to 131 °C.

**Q.** Which melting point does the source give for `COc1cc(C(=O)Cc2ccc(O)cc2)c(O)cc1O` here?
**A.** The melting point was 157 to 159 °C.

**Q.** Which melting point does the source give for `CC(=O)OC1CSC(Oc2ccc(C)nc2-c2cccnc2)C(OC(C)=O)C1OC(C)=O` (configuration not stated) here?
**A.** Its melting point is 92 to 102 °C.

**Q.** For `O=C1NC(c2ccccc2)C(C(=O)NCCO[N+](=O)[O-])O1` (configuration not stated), which melting point is on record?
**A.** Its melting point is 122 to 124 °C.

**Q.** Which melting point does the source give for `O=S(=O)(NCC1CCCO1)c1ccc(Nc2nc(OCC3CCCCC3)c3nc[nH]c3n2)cc1` (configuration not stated) here?
**A.** The melting point was 134 to 136 °C.

**Q.** Which melting point does the source give for `CCC1(C)C(=O)NN=C1c1ccc(-n2ccnc2)cc1` (configuration not stated) here?
**A.** The melting point was 86 to 88 °C.

**Q.** With `O=C(C=Cc1ccc(Cl)c([N+](=O)[O-])c1)N1CCc2c([nH]c3ccccc23)C1c1ccc2c(c1)OCO2` (configuration not stated) as the compound, how does the melting point read?
**A.** The melting point was 240 °C.

**Q.** For `CN=C(Cl)c1ccc([N+](=O)[O-])cc1`, which melting point is on record?
**A.** The melting point was 67 to 73 °C.

**Q.** With `COC(=O)c1cnn(-c2cc(Cl)cc(Cl)c2)c1C(N)=O` as the compound, how does the melting point read?
**A.** Its melting point is 220 to 222 °C.

**Q.** With `O=C1C=CC(=O)C2=C1OCO2` as the compound, how does the melting point read?
**A.** The melting point was 106 to 107 °C.

**Q.** For `CC(C)c1nc(CCOC2=CCCCCCCCC2)n(C)c1Sc1cc(Cl)cc(Cl)c1`, which melting point is on record?
**A.** The melting point was 94 to 96 °C.

**Q.** Which melting point does the source give for `COc1ccc(CNCC(O)COc2cccc3[nH]c4ccccc4c23)c(OC)c1` (configuration not stated) here?
**A.** Its melting point is 152 to 154 °C.

**Q.** With `CN1CCN(c2cc(Cl)cc3c2c(=O)n(Cc2ccccc2)c(=O)n3C)CC1` as the compound, how does the melting point read?
**A.** The melting point was 132 to 136 °C.

**Q.** Which melting point does the source give for `O=C(O)CCOc1ccccc1-c1nc(-c2ccccc2)no1` here?
**A.** Its melting point is 170 to 171 °C.

**Q.** For `Cc1nc2cccc(OCC(C)(C)C(=O)NC(C)C)c2c(N)c1C(=O)O`, which melting point is on record?
**A.** The melting point was 216 to 218 °C.

**Q.** For `COc1cc2c(cc1OCc1ccccc1)CN(Cc1ccccc1)C2`, which melting point is on record?
**A.** Its melting point is 94 to 96 °C.

**Q.** For `CCN1c2ncc(CC(O)c3ccncc3)cc2C(=O)N(C)c2ccc(Cl)nc21` (configuration not stated), which melting point is on record?
**A.** The melting point was 153 to 154 °C.

**Q.** For `COc1ccc(CC2C3=C(CCCC3)CCN2C(=O)C2CCC2)cc1` (configuration not stated), which melting point is on record?
**A.** The melting point was 89 to 91 °C.

**Q.** For `C=CCN1CC(=O)N(c2cc(Cl)ccc2C)C1=S`, which melting point is on record?
**A.** The melting point was 106 to 109 °C.

**Q.** Which melting point does the source give for `COc1ccc(CCNC(=O)OC(C)(C)C)cc1OC` here?
**A.** The melting point was 63 to 67 °C.

**Q.** For `CC(C)C(C)(C#N)N1C(=O)c2ccc3c(ccn3C)c2C1=O` (configuration not stated), which melting point is on record?
**A.** Its melting point is 123 to 128 °C.

**Q.** With `CCCC(C(C)=CC(CNC(=O)Cc1cccnc1)=NO)[N+](=O)[O-]` (configuration not stated) as the compound, how does the melting point read?
**A.** The melting point was 128 to 129 °C.
